# From ChEMBL document CHEMBL1201862, “PubChem BioAssay data set” (2004)
# The source made the active and inactive calls.
# Legend:
# [1] = molecular target: T1, Delta-type opioid receptor (Homo sapiens, UniProt P41143); test: SAR Analysis of Agonists of the DOR Receptor using an Image-Based Assay - Set 3. [Related pubchem assays (depositor defined):AID1777, AID1786]; type: functional
# [2] = molecular target: T2, Kappa-type opioid receptor (Homo sapiens, UniProt P41145); test: SAR analysis of small molecule agonists of the kappa opioid receptor via a luminescent beta-arrestin assay - Set 3. [Related pubchem assays (depositor defined):AID1777, AID1785, AID1786, AID1966, AID2133, AID2136, AID2284, AID2500]; type: functional
# T2 sequence (P41145 whole entry): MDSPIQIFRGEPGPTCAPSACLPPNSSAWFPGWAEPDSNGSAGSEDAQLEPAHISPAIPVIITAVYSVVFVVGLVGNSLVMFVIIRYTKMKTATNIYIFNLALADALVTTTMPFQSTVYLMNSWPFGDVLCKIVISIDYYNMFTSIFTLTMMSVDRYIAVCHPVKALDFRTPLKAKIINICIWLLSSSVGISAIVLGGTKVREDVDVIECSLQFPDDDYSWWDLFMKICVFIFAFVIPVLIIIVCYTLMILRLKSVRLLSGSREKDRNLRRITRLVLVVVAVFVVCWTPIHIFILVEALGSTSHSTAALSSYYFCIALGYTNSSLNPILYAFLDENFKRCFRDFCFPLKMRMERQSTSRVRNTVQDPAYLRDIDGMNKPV
# [3] = molecular target: T2, Kappa-type opioid receptor; test: kappa opioid receptor activation by imaging – image-based, set 3, SAR follow-up (AID 488833); type: functional
# Mu-type opioid receptor [4] = molecular target: T3, Mu-type opioid receptor (Homo sapiens, UniProt P35372); test: SAR Analysis of Agonists of the MOR Receptor using an Image-Based Assay - Set 3. [Related pubchem assays (depositor defined):AID1777, AID1785, AID1786, AID1966, AID2133, AID2136, AID2284, AID2285, AID2352]; type: functional
# T3 sequence (P35372 whole entry): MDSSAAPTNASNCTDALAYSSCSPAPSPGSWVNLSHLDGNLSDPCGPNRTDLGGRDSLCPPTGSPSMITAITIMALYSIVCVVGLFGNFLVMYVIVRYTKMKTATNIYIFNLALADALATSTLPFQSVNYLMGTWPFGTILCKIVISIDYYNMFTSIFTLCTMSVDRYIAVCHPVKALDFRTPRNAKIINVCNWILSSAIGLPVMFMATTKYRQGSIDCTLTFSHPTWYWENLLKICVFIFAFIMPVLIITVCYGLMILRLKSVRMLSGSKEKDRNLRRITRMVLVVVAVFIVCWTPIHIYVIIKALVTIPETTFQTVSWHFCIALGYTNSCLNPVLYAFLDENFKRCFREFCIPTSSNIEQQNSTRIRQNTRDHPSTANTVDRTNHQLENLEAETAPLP
# [5] = PhoP promoter GFP reporter reduction in Typhimurium – purified and synthesized compounds, set 2, PhoP regulon inhibitor project, dose response (AID 2831); type: functional
# [6] = system: Streptococcus sp. 'group A'; test: Streptococcus pyogenes SK(-)GAS viability under kanamycin – luminescence, BacTiterGlo, confirmation, counter-screen for streptokinase expression inhibitor project, dose response (AID 1900); type: functional, organism-based
# Streptococcus = test: GAS UMAA2166 growth inhibition – luminescence, BacTiterGlo, counter-screen for streptokinase expression inhibitor project, dose response (AID 1915); type: functional, organism-based;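 further: potency for reduction of bacterial viability or growth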
# [7] = molecular target: Heat shock protein HSP 90-alpha (Homo sapiens, UniProt P07900); type: functional, organism-based
# Streptokinase A = molecular target: T4, Streptokinase A (Streptococcus pyogenes serotype M1, UniProt P10520); test: viability-normalized secreted streptokinase activity reduction – plasminogen activation absorbance, OD405, dose response (AID 1914); type: functional, Streptococcus pyogenes M1 GAS;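 further: secreted streptokinase activity via plasminogen activation per viability signal from cell pellet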
# T4 sequence (P10520 whole entry): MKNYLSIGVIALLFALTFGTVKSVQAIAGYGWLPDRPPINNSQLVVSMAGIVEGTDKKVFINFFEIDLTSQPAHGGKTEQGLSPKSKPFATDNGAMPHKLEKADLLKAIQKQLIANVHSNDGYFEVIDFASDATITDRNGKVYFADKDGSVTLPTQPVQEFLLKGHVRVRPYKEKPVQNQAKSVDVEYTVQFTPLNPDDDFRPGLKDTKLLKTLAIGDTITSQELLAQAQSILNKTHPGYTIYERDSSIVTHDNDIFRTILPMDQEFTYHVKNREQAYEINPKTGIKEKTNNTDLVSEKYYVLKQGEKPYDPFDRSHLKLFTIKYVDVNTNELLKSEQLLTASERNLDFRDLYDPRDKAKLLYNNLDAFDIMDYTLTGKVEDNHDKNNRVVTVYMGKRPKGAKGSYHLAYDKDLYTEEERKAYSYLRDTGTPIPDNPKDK
# [8] = molecular target: T5, G-protein coupled receptor 35 (Homo sapiens, UniProt Q9HC97); test: inhibition of zaprinast-stimulated GPR35 beta-arrestin translocation – imaging, U2OS, beta-arrestin-GFP, zaprinast agonist, primary screen (AID 2058); type: functional;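 further: antagonist potency meaning inhibition of agonist-induced arrestin redistribution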
# T5 sequence (Q9HC97 whole entry): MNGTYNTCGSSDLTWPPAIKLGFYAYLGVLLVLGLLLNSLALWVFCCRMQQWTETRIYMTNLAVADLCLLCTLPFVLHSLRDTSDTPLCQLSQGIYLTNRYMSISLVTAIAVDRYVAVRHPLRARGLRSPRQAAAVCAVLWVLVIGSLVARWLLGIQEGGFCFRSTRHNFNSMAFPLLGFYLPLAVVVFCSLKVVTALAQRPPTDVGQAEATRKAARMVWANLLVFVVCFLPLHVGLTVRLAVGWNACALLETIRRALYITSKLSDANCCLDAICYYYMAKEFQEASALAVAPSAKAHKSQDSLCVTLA
# [9] = molecular target: T5, G-protein coupled receptor 35; test: SAR Analysis for the identification of Selective Antagonists of ERK1/2 Activity in GPR35-Overexpressing U2OS Cells. [Related pubchem assays: 2079, 2058 ]; type: functional, cell-based
# [10] = molecular target: G-protein coupled receptor 55 (Homo sapiens, UniProt Q9Y2T6); test: blockers of GPR55 signalling, imaged – imaging, image-based, counter-screen for GPR35 antagonist project, SAR follow-up (AID 2397); type: functional
# Chain of G-protein coupled receptor 55 (Q9Y2T6 whole entry): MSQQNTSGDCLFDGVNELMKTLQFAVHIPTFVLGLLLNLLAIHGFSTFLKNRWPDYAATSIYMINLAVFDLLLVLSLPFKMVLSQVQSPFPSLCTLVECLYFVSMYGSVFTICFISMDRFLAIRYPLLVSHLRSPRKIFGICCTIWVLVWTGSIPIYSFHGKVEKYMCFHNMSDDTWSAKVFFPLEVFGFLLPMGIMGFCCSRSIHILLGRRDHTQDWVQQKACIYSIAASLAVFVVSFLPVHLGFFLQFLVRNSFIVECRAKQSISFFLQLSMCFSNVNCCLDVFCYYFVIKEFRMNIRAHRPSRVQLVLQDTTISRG
# [11] = molecular target: T6, Tyrosine-protein phosphatase non-receptor type 7 (Homo sapiens, UniProt P35236); type: functional
# T6 sequence (P35236 whole entry): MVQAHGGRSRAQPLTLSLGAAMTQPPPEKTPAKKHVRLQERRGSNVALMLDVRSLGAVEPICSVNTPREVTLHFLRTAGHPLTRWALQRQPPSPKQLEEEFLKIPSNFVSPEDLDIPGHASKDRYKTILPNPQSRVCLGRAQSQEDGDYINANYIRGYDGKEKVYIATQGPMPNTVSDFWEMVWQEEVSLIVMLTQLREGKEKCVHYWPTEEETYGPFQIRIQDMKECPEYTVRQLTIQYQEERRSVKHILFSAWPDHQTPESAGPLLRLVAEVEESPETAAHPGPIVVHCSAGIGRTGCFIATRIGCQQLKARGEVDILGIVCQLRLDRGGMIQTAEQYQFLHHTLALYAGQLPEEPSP
# [12] = molecular target: T7, Tyrosine-protein phosphatase non-receptor type 22 (Homo sapiens, UniProt Q9Y2R2); type: functional
# T7 sequence (Q9Y2R2 whole entry): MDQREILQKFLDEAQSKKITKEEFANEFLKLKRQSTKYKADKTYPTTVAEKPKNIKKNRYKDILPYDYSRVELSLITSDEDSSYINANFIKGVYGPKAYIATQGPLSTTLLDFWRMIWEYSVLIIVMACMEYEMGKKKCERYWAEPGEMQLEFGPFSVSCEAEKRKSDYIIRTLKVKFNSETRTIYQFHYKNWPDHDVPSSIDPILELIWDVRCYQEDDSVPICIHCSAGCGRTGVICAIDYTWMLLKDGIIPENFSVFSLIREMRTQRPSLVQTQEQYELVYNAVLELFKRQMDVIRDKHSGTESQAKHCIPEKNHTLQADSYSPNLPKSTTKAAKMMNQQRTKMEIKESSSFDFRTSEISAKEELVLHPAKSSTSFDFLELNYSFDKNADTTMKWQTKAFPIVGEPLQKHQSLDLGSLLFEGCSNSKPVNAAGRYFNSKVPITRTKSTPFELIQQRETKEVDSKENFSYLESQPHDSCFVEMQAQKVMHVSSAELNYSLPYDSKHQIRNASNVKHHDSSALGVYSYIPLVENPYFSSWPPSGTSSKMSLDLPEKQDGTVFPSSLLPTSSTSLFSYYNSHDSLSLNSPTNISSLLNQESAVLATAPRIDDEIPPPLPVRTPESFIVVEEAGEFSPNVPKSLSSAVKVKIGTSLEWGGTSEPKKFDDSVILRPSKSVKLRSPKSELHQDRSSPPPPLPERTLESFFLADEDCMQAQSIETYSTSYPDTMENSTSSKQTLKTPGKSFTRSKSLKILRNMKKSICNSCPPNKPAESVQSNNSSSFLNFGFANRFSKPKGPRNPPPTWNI
# [13] = molecular target: T7, Tyrosine-protein phosphatase non-receptor type 22; type: functional; remark: listed apart in the source
# [14] = NIH3T3 cell viability loss – ATP luminescence, mouse fibroblasts, counter-screen, dose response (AID 2010); type: functional, cell-based;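 further: cells exposed to compound for about 90 hours before reading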
# [15] = Trypanosoma cruzi growth suppression in host cells – NIH3T3 host cells, beta-gal luminescence, confirmation (AID 2044); type: functional, cell-based;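 further: intracellular parasites grown in NIH/3T3 mouse fibroblasts as host cells; luminescent beta-galactosidase reporter signal from transgenic T. cruzi replicating inside host cells; inhibitors lower the luminescence signal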
# HEK293 [16] = test: inhibition of NOD1-driven NF-kB reporter – cell-based, luminescence, uHTS, primary screen (AID 1578); type: functional; details: Homo sapiens
# [17] = molecular target: Nucleotide-binding oligomerization domain-containing protein 2 (Homo sapiens, UniProt Q9HC29); test: PubChem AID 2334; type: functional
# HEK293 [18] = test: cells; details: Homo sapiens
# Tumor necrosis factor = Tumor necrosis factor (Homo sapiens, UniProt P01375); test: analog potency on TNFa NF-kB signaling – cell-based, revised, SAR follow-up (AID 2337); type: functional
# Chain of Tumor necrosis factor (P01375 whole entry): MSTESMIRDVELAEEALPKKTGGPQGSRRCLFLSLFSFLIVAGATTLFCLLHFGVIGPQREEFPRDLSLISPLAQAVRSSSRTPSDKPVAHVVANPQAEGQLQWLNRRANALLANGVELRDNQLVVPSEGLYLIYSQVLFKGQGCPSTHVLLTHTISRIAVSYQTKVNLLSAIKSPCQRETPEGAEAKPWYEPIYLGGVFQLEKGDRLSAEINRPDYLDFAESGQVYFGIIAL
# HEK293 [19] = test: cells; type: functional, cell-based; details: Homo sapiens
# [20] = molecular target: Nucleotide-binding oligomerization domain-containing protein 1 (Homo sapiens, UniProt Q9Y239); test: blockers of NOD1 pathway activity – revised, SAR follow-up (AID 2333); type: functional
# Chain of Nucleotide-binding oligomerization domain-containing protein 1 (Q9Y239 whole entry, the tested form may be a part): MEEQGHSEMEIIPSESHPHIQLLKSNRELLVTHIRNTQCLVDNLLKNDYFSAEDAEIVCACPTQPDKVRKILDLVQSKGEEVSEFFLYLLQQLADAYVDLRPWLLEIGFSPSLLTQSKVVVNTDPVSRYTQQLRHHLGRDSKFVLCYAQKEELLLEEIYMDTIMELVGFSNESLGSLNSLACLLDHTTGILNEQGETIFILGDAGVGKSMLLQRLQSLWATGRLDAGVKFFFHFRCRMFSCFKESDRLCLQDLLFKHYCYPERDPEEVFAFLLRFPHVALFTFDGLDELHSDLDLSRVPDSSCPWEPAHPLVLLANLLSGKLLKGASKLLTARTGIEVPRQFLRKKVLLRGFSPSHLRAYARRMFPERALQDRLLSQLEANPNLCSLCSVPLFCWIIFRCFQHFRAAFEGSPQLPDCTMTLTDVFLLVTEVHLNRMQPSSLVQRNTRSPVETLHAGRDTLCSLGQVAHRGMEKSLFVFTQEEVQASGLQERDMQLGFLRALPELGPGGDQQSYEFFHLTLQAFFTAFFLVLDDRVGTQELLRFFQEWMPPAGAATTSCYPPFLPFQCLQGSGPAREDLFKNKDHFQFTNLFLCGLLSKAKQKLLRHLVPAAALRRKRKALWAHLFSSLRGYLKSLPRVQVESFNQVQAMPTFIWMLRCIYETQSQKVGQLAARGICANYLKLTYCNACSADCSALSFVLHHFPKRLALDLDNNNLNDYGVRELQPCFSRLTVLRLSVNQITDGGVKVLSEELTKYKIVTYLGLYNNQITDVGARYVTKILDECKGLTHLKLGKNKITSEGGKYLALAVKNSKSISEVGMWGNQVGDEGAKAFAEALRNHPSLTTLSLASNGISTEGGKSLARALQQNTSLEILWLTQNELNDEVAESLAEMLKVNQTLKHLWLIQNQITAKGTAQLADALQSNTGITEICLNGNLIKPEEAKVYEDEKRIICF
# HEK293 [21] = test: NOD2 signaling inhibitors in MDP-stimulated cells, cell-based, uHTS, luminescence (AID 2001); type: functional; details: Homo sapiens
# HEK293 [22] = test: cells; type: functional, cell-based; details: Homo sapiens; remark: listed apart in the source
# [23] = molecular target: Lysine-specific demethylase 4A (Homo sapiens, UniProt O75164); test: inhibition of JMJD2A H3K9me3 demethylation – biochemical, DELFIA europium, cherry-picked samples, selectivity assay for GASC-1 inhibitor project, dose response (AID 488840)
# Paired box protein Pax-8 = Paired box protein Pax-8 (Homo sapiens, UniProt Q06710); test: PAX8 transcriptional activity inhibition in RMG-I – RMG-I cells, luciferase, cherry-pick, dose response (AID 687027); type: functional, cell-based;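 further: luciferase reporter driven by Pax8 target thyroperoxidase promoter measured by SteadyGlo luminescence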
# Chain of Paired box protein Pax-8 (Q06710 whole entry): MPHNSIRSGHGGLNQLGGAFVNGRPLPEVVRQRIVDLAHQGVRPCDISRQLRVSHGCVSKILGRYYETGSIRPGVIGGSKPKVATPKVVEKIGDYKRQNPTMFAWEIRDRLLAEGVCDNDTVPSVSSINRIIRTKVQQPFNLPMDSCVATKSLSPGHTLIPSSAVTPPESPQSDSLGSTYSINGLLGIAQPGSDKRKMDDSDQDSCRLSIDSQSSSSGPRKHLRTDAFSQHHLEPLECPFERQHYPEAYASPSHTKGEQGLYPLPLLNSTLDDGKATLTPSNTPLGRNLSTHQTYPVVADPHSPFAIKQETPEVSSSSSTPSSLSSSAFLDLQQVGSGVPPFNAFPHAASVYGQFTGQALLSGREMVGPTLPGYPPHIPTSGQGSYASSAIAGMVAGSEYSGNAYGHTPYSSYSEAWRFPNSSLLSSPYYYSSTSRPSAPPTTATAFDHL
# [24] = molecular target: T2, Kappa-type opioid receptor; type: functional
# Beta-galactosidase = Beta-galactosidase (Escherichia coli, UniProt Q8VNN2); type: functional
# Mu-type opioid receptor [25] = molecular target: T3, Mu-type opioid receptor; test: HTS Image-Based Screen for Agonists of the MOR Receptor. [Related pubchem assays (depositor defined):AID1777, AID1785, AID1786, AID2133]; type: functional
# [26] = molecular target: T8, Ubiquitin-conjugating enzyme E2 N (Homo sapiens, UniProt P61088); type: functional;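 further: Dose-response confirmation in a TR-FRET assay detecting UBC13-driven polyubiquitin chain formation, inhibition measured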
# T8 sequence (P61088 whole entry): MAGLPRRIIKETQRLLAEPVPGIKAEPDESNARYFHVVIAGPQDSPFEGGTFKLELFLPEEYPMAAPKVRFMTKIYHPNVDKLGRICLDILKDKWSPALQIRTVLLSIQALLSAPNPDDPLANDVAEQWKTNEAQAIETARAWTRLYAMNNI
# [27] = molecular target: T2, Kappa-type opioid receptor; type: functional; remark: listed apart in the source
# [28] = molecular target: T1, Delta-type opioid receptor; test: HTS Image-Based Screen for Antagonists of the DOR Receptor. [Related pubchem assays (depositor defined):AID1777, AID1785, AID1786, AID2133]; type: functional
# [29] = molecular target: T1, Delta-type opioid receptor; test: HTS Image-Based Screen for Agonists of the DOR Receptor. [Related pubchem assays (depositor defined):AID1777, AID1786, AID2133]; type: functional
# [30] = molecular target: Signal transducer and activator of transcription 3 (Homo sapiens, UniProt P40763); test: STAT3 blockade with qPCR and toxicity readouts – cell-based, STAT1 panel, cytotoxicity, late-stage follow-up, panel member STAT3 Inhibition (AID 2078)
# Chain of Signal transducer and activator of transcription 3 (P40763 whole entry): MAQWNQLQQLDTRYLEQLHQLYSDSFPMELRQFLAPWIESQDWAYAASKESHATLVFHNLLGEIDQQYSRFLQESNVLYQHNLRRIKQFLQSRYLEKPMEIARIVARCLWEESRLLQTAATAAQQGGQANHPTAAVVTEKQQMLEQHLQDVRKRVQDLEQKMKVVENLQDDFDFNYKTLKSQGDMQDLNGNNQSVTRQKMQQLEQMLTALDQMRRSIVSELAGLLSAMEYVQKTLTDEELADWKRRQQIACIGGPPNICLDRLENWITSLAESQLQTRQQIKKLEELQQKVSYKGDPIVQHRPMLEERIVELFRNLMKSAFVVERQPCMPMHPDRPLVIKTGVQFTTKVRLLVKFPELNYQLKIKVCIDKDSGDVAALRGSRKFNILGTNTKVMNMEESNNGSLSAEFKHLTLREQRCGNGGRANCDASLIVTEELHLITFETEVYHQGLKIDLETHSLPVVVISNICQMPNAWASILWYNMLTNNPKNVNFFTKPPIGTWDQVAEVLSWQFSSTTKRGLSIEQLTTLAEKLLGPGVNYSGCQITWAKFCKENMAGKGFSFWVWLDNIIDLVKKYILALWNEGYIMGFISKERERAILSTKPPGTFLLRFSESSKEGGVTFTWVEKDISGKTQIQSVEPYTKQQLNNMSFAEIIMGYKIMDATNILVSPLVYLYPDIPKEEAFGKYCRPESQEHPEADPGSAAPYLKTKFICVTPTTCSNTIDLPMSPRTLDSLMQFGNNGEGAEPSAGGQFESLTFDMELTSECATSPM
# [31] = molecular target: Signal transducer and activator of transcription 1-alpha/beta (Homo sapiens, UniProt P42224); test: STAT3 blockade with qPCR and toxicity readouts – cell-based, STAT1 panel, cytotoxicity, late-stage follow-up, panel member STAT1 Inhibition (AID 2078)
# [32] = molecular target: T9, COUP transcription factor 2 (Homo sapiens, UniProt P24468); test: Luminescence-based cell-based high throughput dose response assay to identify inhibitors of COUP-TFII (NR2F2).; type: functional;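 further: HEK293 cells transiently cotransfected with COUP-TFII expression vector and reporter; luciferase reporter luminescence driven by COUP-TFII from the pX2-168 reporter plasmid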
# T9 sequence (P24468 whole entry): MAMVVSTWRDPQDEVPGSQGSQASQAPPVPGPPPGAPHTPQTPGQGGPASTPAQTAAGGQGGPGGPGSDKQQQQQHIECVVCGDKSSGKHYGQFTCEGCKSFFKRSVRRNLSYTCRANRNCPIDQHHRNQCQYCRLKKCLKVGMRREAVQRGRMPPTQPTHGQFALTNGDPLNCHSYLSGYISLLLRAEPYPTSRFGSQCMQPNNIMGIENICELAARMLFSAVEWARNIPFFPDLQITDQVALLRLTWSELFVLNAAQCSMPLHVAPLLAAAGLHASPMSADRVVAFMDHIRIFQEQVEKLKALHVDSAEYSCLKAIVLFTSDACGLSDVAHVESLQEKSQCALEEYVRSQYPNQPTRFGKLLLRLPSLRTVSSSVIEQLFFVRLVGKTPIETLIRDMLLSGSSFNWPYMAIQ
# T1 sequence (P41143 whole entry): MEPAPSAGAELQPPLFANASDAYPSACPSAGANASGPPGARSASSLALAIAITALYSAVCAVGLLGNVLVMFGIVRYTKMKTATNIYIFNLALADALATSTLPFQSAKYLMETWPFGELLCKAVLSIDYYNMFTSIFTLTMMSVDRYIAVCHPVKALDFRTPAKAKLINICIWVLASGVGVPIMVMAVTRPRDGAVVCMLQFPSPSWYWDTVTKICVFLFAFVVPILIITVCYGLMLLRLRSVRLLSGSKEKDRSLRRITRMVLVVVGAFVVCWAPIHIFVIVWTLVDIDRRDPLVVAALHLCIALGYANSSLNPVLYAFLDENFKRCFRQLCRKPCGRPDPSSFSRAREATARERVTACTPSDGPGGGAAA
structure (smiles),measurement,setting,value
COC(=O)c1ccc(CSc2nnc(-c3ccccn3)n2Cc2cccs2)cc1,EC50,[1],> 32 µM (inactive)
same,EC50,[2],6.14 µM (active)
same,EC50,[3],5.99 µM (active)
same,EC50,Mu-type opioid receptor [4],> 32 µM (inactive)
CSc1nc2cc(Cl)c(Oc3cccc(Cl)c3Cl)cc2[nH]1 [TRICLABENDAZOLE],IC50,[5],> 125 µM (active)
same,EC50,[6],2.26 µM (active)
same,EC50,Streptococcus,6.22 µM (active)
same,AC50,[7],4.25 µM (active)
same,EC50,Streptokinase A,4.69 µM (active)
CC(C)(C)c1ccc(OCCC(=O)NCCc2ccc(S(N)(=O)=O)cc2)cc1,IC50,[8],929 nM (active)
same,IC50,[9],9.95 µM (active)
same,IC50,[10],> 32 µM (inactive)
COc1ccc(N2CCN(CCOc3ccc4c(C)cc(=O)oc4c3)CC2)cc1,IC50,[11],> 79.4 µM (inactive)
same,IC50,[12],> 79.4 µM (inactive)
same,IC50,[13],> 79.4 µM (inactive)
COc1ccc(C(=O)NC(=S)N(C)C2CCCCC2)cc1Br,EC50,[14],12.4 µM (active)
same,EC50,[15],3.6 µM (active)
same,EC50,HEK293 [16],> 20 µM (inactive)
same,IC50,[17],> 20 µM (inactive)
same,IC50,HEK293 [18],> 20 µM (inactive)
same,IC50,Tumor necrosis factor,> 20 µM (inactive)
same,IC50,HEK293 [19],> 20 µM (inactive)
same,IC50,[20],> 20 µM (inactive)
same,IC50,HEK293 [21],6.75 µM (inactive)
same,IC50,HEK293 [22],> 20 µM (inactive)
O=C(NN=C1CCCCCCCCCCC1)c1cccc(S(=O)(=O)N2CCOCC2)c1,AC50,[23],18.1 µM (active)
Cc1ccc(C(=O)N[C@@H](C)CN2C3=NC[C@@H](Cc4ccccc4)N3C[C@H]2Cc2ccc(O)cc2)cc1Br,AC50,Paired box protein Pax-8,24.8 µM (active)
same,IC50,[24],1440 nM
same,EC50,Beta-galactosidase,> 31.5 µM (inactive)
same,EC50,Mu-type opioid receptor [25],> 32 µM (inactive)
same,IC50,[26],> 20 µM (inactive)
same,IC50,[27],3.16 µM (active)
same,IC50,[28],> 32 µM (inactive)
same,EC50,[29],31.2 µM (inactive)
O=C(c1ccccc1)C1CCN(c2ncnc3sccc23)CC1,IC50,[30],688 nM (active)
same,IC50,[31],> 55.7 µM (inactive)
same,IC50,[32],5.71 µM (active)
